The results in this text go back to patent US11629192B2, “Methods and pharmaceutical compositions for the treatment of diseases mediated by the NRP-1/OBR complex signaling pathway” (INSERM (Institut National de la Sante et de la Recherche …, priority 2014, dated 2023).

The subject of experiment [1] is NRP-1/OBR complex. The experiment is described as follows: NRP-1/OBR complex by PLA in skin fibroblast of healthy donor and anorexic patient. Type of experiment: cell-based, human. The conditions noted are these: for NRP-1/OBR complex formation: skin fibroblasts of healthy donor and anorexic patient, treated during 4 hours. As to the method:
FIG. 3A-B. NRP1/OBR complex formation inhibited by two alosteric inhibitors of Protein-kinase CK2 in skin fibroblast of healthy donor (A) and anorexic patient (B). The NRP-1/OBR complex (Red dot) is detected by de Proximity Ligation assay technology (PLA or Ouolink). Cells were grown in DMEM plus 20% of fetal bovine serum+Sodium pyruvate+LGiutamate and penicillin and streptomycin. Cells were treated or not with D3.1 or M4 CK2 inhibitor during 4 hours. Cells were washed with PBS1X and fixed with iced acetone and rehydrated with PBS before blockage and staining with a Goat ant-Human leptin and Rabbit anti-Neuropilin-1 and Mouse anti-Leptin receptor OBR. Leptin was detected using a donkey and Goat Alexa 488 (Green) and NRP-1 and OBR with anti-Rabbit-PLA minus and antimouse-PLA plus as described in the link indicated above. The NRP-1/OBR complex is inhibited by D3.1 and M4 treatment.

The subject of experiment [2] is NRP-1/OBR complex. The experiment is described as follows: NRP-1/OBR complex detection by Duolink Proximity Ligation Assay in MDA-MB-231 cells. Type of experiment: cell-based, human. The conditions noted are these: for formation and nuclear translocation of the NRP-1/OBR complex: MDA-MB-231 stimulated with Leptin (10 nM), CK2 inhibitor treatment. From the text:
FIG. 2A-E. NRP-1/OBR complex is dependent of the activity of Protein-kinase CK2: NRP-1 and OBR are both a substrate of the holoenzyme CK2: In vitro phosphorylation of the recombinant full length NRP-1 (A) and the length OBR (B) indicate that the CK2β subunit is indispensable for the CK2 activity. C. Detection of the NRP-1 and CK2β subunit interaction: By using the PLA technology, the in vitro data showing the implication of CK2β subunit in the phosphorylation of NRP-1 by CK2 are in part confirmed in MDA-MB231 cells by the detection of CK2β interaction with NRP-1 as indicated by the duolink (white dot). […] E. inhibition of the NRP-1/OBR by the simultaneous CK2α and CK2α′ expression silencing using siRNA that confirms the CK2 implication In the NRP-1/OBR complex formation and nuclear localization.
To confirm a direct association of NRP-1 and Leptin in breast cancer cell migration, we investigated the NRP-1 and OBR interaction by using proximity ligation assay technology (Duolink) in MDA-MB-231 and in T47D-NRP-1. Since OBR is a member of the class I cytokine receptor family, we asked the question if the formation of the complex NRP-1/OBR can or not be modulated by Leptin. This question was investigated endogenously in MDA-MB-231 or by transient transfection of T47D either by NRP-1 or by NRP-1/OBR or OBR alone. After 24 h of transfection, cells were serum starved for 16 h then stimulated with Leptin (10 nM). After 3 h, the stimulation was stopped by removing the medium, cells was first washed then fixed and NRP-1/OBR complex formation was analyzed by Duolink in situ Proximity Ligation Assay (PLA) and by confocal microscopy detection. Co-localization was analyzed using JACoP (ImageJ; National Institutes of Health, Bethesda, Md.) software. Co-localization between molecules was indicated by a positive Pearson coefficient (r). First, the expression of NRP-1 in transfected T47D was confirmed by RT-PCR. NRP-1 forms a complex with endogenous OBR as it is shown by the Duolink detection as red dot in cells transfected with pcDNA3-NRP-1. The Duolink signal increased in the T47D co-transfected with NRP-1 and OBR. The Duolink signals in T47D transfected with either the empty vector pcDNA3 or with the OBR expressing vector were similar. The same results are observed in MDA-MB-231. […] By using subcellular protein fractionation kit, NRP-1 and OBR localization in cytoplasmic (C), membrane (M), in the total nuclear extract (N) or in soluble nuclear (SN) and chromatin bound fractions (CB) was analyzed by western blotting either in total lysate or after coimmunoprecipitation. The purity of fraction was assessed by the detection of specific proteins of each fraction such as Hsp90 for the C fraction, SP1 and HDAC2 for the SN and CB fractions and specifically the Calreticulin for endoplasmic reticulum (ER) in order to detect any contamination by the ER membrane fraction in the nuclear fractions. As suspected, OBR was coimmunoprecipitated with NRP-1 in the cytoplasmic (C) and in the nuclear fraction (N) of MDA-MB-231 but not in T47D. As well as Phosphorylated OBR (P-OBR), NRP-1 was detected in cytoplasmic fraction and in nuclear fractions SN and CB of 16 h serum starved MDA-MB-231 and stimulated with 10 nM of Leptin during 3 h at 37° C. The P-OBR and NRP-1 coimmunoprecipitated in the nuclear fractions, increasing with Leptin stimulation as observed by confocal microscopy.
As attempted, NRP-1/OBR complex was detected by confocal microscopy after by Duolink in situ Proximity Ligation Assay (PLA) in MDA-MB-231 stimulated with Leptin (10 nM). This detection was also observed in MDA-MB-231-shGFP but very less in MDA-MB-231-shNRP-1 confirming NRP-1 association with OBR.

Another experiment has as its system P-NRP-1. The experiment is described as follows: NRP-1 (P-NRP-1) and OBR phosphorylation in MDA-MB-231, immunostaining / coimmunoprecipitation. The conditions noted are these: for NRP-1 and OBR phosphorylation: inhibition of CK2 by chemical compounds. Type of experiment: cell-based, human. From the text: Beside the modulation of the NRP-1/OBR complex formation by Leptin and OBR phosphorylation, we postulated a possible phosphorylation of NRP-1 that can regulate the translocation of the complex to the nucleus. Two putative phosphorylation sites of NRP-1 have been reported with no more investigation. The first one at the extracellular B domain as reported by Shintani et al in 2009 with no antibody available and the second one at the Threonine 916 located in the cytoplasmic domain as it was reported by Kyle et al in 2011. Since a specific antibody against P-NRP-1 at the T916 was available, we investigated by coimmunoprecipitation the detection of P-NRP-1 in MDA-MB-231 after serum starvation and stimulation by Leptin (10 nM). […] To confirm this phosphorylation state, we investigated the possible implication of a Serine/threonine Kinase CK2 using one of its first chemical inhibitor (DRB). In serum starved condition, P-NRP-1 was detected as polarized spot in the cytoplasm and the nucleus of MDA-MB-231. […] The inhibition was specific since, in stimulated condition combined with DMSO at the same dilution of DRB, we were able to observe a diffuse nuclear P-NRP-1 staining.

For the next experiment, the system named is MDA-MB-231 cells. The experiment is described as follows: MDA-MB-231 cell migration / transmigration through insert. The experiment is classed as cell-based, human. The conditions noted are these: 10 μg/ml of Bevacizumab. From the text:
(§1) FIG. 5. NRP-1, OBR and leptin interactions confirmation using a Bio-Layer Interferometry (BLI) technology (fortebio.com/bli-technology.html): A-Leptin (OB) interaction to OBR is used as a positive control. Human neuropilin-1 (hNRP-1) interact with human OBR with a high affinity and specifically with human leptin (hOB) but not with murine leptin (mOB). VEGF165 binding to hNRP-1 is used as a positive control. B-Leptin and Avastin association increases MDA-MB231 cells transmigration through […] pore Insert. Avastin treatment may prevent a negative feedback control by VEGF of the pro-angiogenic signaling pathway of Leptin. VEGF binds to OBR which confirms our hypothesis that should be more investigated.
First MBA-MB-231 and T47D breast cancer cells line were selected for their high and undetectable NRP-1 expression respectively and the expression of Leptin receptor (OBR). In order to investigate NRP-1 and Leptin association in breast cancer cell line migration, we proceeded to NRP-1 expression silencing in MDA-MB-231 using either siRNA or shRNA approaches or NRP-1 overexpression in T47D. […] In contrast Leptin induced MDA-MB-231 migration that was decreased in siNRP-1 conditions. The in vitro data were confirmed in vivo by MDA-MB-231 and T47D xenografts in Nude mice. Modulation of NRP-1 expression either by shRNA silencing in MDA-MB-231 or by overexpression in T47D induced an increase of proliferation and a decrease of lymph node infiltration by MDA-MB-231-shNRP-1 and a decrease of proliferation and an increase of lymph node infiltration by T47D-NRP-1-RFP in mice treated with Leptin.
Leptin induced in vitro MDA-MB-231 migration that was decreased by NRP-1 repression using siRNA. Lel Xu et al have reported a direct evidence of NRP-1 up-regulation in tumors treated by anti-VEGF (Bevacizumab). […] This observation can be a first explanation of breast cancer therapy failure (increase of Progression survival while decreasing overall survival) by Bevacizumad and that was revoked by the FDA (Food and Drugs Administration, US).

The subject of experiment [3] is OBR and STAT3 phosphorylation. The experiment is described as follows: OBR and STAT3 phosphorylation in cytoplasmic and nuclear fractions. The experiment is classed as cell-based. From the text: Since both NRP-1/OBR complex formation and NRP-1 phosphorylation were abolished by CK2 inhibition, we supposed that OBR signaling pathway could be also affected by CK2 inhibition.

Experiment [4] addresses Human neuropilin-1 (hNRP-1) (Homo sapiens, UniProt O14786). The experiment is described as follows: Bio-Layer Interferometry (BLI) interaction with hNRP-1. Type of experiment: binding.
Source text: as §1
On the technique in general: In BLI a coated tip is dipped into the sample, and binding shifts an interference pattern.

Entries after “also recorded” stand apart in the source; their conditions may differ.

In the case of `O=[N+]([O-])c1ccc2c(/N=N/c3c(O)ccc4ccccc34)c(O)cc(S(=O)(=O)O)c2c1` [M4, reference compound], in the experiment on NRP-1/OBR complex [1], the NRP-1/OBR complex formation entry was “inhibited”.
Consider `CCC(=C/[C@H](C)C/C=C/C(C)=C/[C@@H](C)C(=O)[C@@H](C)[C@H](O)[C@@H](C)C/C(C)=C/C(=O)O)/C=C/[C@@H]1OC(=O)C=C[C@@H]1C` [leptomycin B], for which the “NRP-1/OBR complex detection by Duolink in the nucleus” value in the experiment with NRP-1/OBR complex [2] (MDA-MB-231 co-treated with Leptin and leptomycin B vs Leptin alone) was “increased”.
For the molecule `OC[C@H]1O[C@@H](n2cnc3cc(Cl)c(Cl)cc32)[C@H](O)[C@@H]1O` [DRB, 5,6-dichloro-1-P-D-ribofuranosylbenzimidazole], the figures for the “formation and nuclear translocation of the NRP-1/OBR complex” value (“formation and nuclear translocation” for short) in the experiment with NRP-1/OBR complex [2] and with NRP-1/OBR complex [2] (listed as DBB) were “prevented” and “decrease of NRP-1/OBR complex formation”, respectively. Besides, in the experiment with P-NRP-1 (Leptin-stimulated (10 nM) MDA-MB-231, DRB treatment (5004)), the “P-NRP-1 staining (diffuse nuclear staining and polarized spot)” value is “inhibition of the diffuse nuclear P-NRP-1 staining but also to the decrease of P-NRP-1 polarized spot”. For the same molecule, the “NRP-1 and OBR phosphorylation” value with P-NRP-1 was “prevented”.
With `O=C(O)c1ccc2c(c1)nc(Nc1cccc(Cl)c1)c1ccncc12` [CX4945], the “NRP-1/OBR complex detection by PLA and its nuclear localization” value with NRP-1/OBR complex [2] (MDA-MB231, CX4945 (504) during 4 h, leptin stimulation (10 nM)) is “decrease in NRP-1/OBR complex detection by PLA (red dot) and its nuclear localization”. The “formation and nuclear translocation” value in the experiment with NRP-1/OBR complex [2] is “prevented; also recorded: the same results obtained with TBB and DRB inhibitors”. Moreover, the “NRP-1 and OBR phosphorylation” value in the experiment on P-NRP-1 is listed as “prevented”.
As for `O=C(O)c1cccc(Nc2nc(-c3cccc([N+](=O)[O-])c3)cs2)c1` [D3.1], the NRP-1/OBR complex formation result with NRP-1/OBR complex [1] is recorded as “inhibited”. The “efficiency of NRP-1/OBR complex inhibition, D3.1 compared with M4” value with NRP-1/OBR complex [1] (skin fibroblasts, 4 hours) is reported as “seems more efficient”.
In the case of “Bevacizumab: anti-VEGF antibody (rhuMab VEGF, Avastin) [reference compound]”, in the experiment on MDA-MB-231 cells, the MDA-MB-231 migration result was “induced”.
Regarding `Brc1c(Br)c(Br)c2[nH]nnc2c1Br` [TBB, 4,5,6,7-tetrabromobenzotriazole], the “Leptin induced OBR and STAT3 phosphorylation increase, effect of inhibitor” value in experiment [3] is given as “inhibited by TBB treatment in a dose dependent manner”. The “formation and nuclear translocation” value in the experiment with NRP-1/OBR complex [2] is “prevented; also recorded: decrease of NRP-1/OBR complex formation”. The “NRP-1 and OBR phosphorylation” value in the experiment with P-NRP-1 was “prevented”.

B1: mOB: murine leptin (protein, UniProt P41160 22-167, looked up)
Leptin: VPIQKVQDDTKTLIKTIVTRINDISHTQSVSAKQRVTGLDFIPGLHPILSLSKMDQTLAVYQQVLTSLPSQNVLQIANDLENLRDLLHLLAFSKSCSLPQTSGLQKPESLDGVLEASLYSTEVVALSRLQGSLQDILQQLDVSPEC
Take B1: the “interaction with hNRP-1” value in experiment [4] was “not”.
